Measurements reported in PubChem BioAssay (NCI).
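48-hour exposure; five concentrations; linearly interpolated endpoints. The concentration for 50% growth inhibition is given as GI50. The concentration for full growth arrest is given as TGI.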

What was measured:
Experiment in all cases: growth of human tumour cells (NCI), 48 h
BT-549 breast = tested on: BT-549 breast
RXF 393 renal = tested on: RXF 393 renal
MCF7 breast = tested on: MCF7 breast
PC-3 prostate = tested on: PC-3 prostate
SW-620 colon = tested on: SW-620 colon
HOP-92 NSCLC = tested on: HOP-92 NSCLC
OVCAR-3 ovarian = tested on: OVCAR-3 ovarian
ACHN renal = tested on: ACHN renal
NCI-H23 lung = tested on: NCI-H23 lung
U251 CNS = tested on: U251 CNS
SNB-19 CNS = tested on: SNB-19 CNS
LOX IMVI melanoma = tested on: LOX IMVI melanoma
786-0 renal = tested on: 786-0 renal
EKVX NSCLC = tested on: EKVX NSCLC
MALME-3M melanoma = tested on: MALME-3M melanoma
SF-268 CNS = tested on: SF-268 CNS
MDA-MB-231 breast = tested on: MDA-MB-231 breast
SNB-75 CNS = tested on: SNB-75 CNS
SK-MEL-2 melanoma = tested on: SK-MEL-2 melanoma
DU-145 prostate = tested on: DU-145 prostate
RPMI-8226 leukemia = tested on: RPMI-8226 leukemia
SR leukemia = tested on: SR leukemia
SN12C renal = tested on: SN12C renal
NCI/ADR-RES ovarian = tested on: NCI/ADR-RES ovarian
M14 melanoma = tested on: M14 melanoma
OVCAR-8 ovarian = tested on: OVCAR-8 ovarian
NCI-H226 lung = tested on: NCI-H226 lung
MDA-MB-435 = tested on: MDA-MB-435
OVCAR-4 ovarian = tested on: OVCAR-4 ovarian
CCRF-CEM leukemia = tested on: CCRF-CEM leukemia
HCC-2998 colon = tested on: HCC-2998 colon
A498 renal = tested on: A498 renal
MOLT-4 leukemia = tested on: MOLT-4 leukemia
HL-60(TB) leukemia = tested on: HL-60(TB) leukemia
COLO 205 colon = tested on: COLO 205 colon
UO-31 renal = tested on: UO-31 renal
IGROV1 ovarian = tested on: IGROV1 ovarian
A549 NSCLC = tested on: A549 NSCLC
SK-OV-3 ovarian = tested on: SK-OV-3 ovarian
KM12 colon = tested on: KM12 colon
SK-MEL-5 melanoma = tested on: SK-MEL-5 melanoma
T-47D breast = tested on: T-47D breast
SF-539 CNS = tested on: SF-539 CNS
SK-MEL-28 melanoma = tested on: SK-MEL-28 melanoma
UACC-257 melanoma = tested on: UACC-257 melanoma
UACC-62 melanoma = tested on: UACC-62 melanoma
HOP-62 NSCLC = tested on: HOP-62 NSCLC
HCT-116 colon = tested on: HCT-116 colon
HS 578T breast = tested on: HS 578T breast
K-562 leukemia = tested on: K-562 leukemia
SF-295 CNS = tested on: SF-295 CNS
OVCAR-5 ovarian = tested on: OVCAR-5 ovarian
CAKI-1 renal = tested on: CAKI-1 renal
NCI-H460 lung = tested on: NCI-H460 lung
TK-10 renal = tested on: TK-10 renal
HT29 colon = tested on: HT29 colon
HCT-15 colon = tested on: HCT-15 colon

O=C(Nc1ccccc1)Nc1nc2ccc([N+](=O)[O-])cc2s1
GI50 (BT-549 breast): 2020 nM
TGI (BT-549 breast): 6500 nM
GI50 (RXF 393 renal): 548 nM
TGI (RXF 393 renal): 3020 nM
GI50 (MCF7 breast): 1420 nM
TGI (MCF7 breast): 10800 nM
GI50 (PC-3 prostate): 1690 nM
TGI (PC-3 prostate): 9890 nM
GI50 (SW-620 colon): 2970 nM
TGI (SW-620 colon): 12700 nM
GI50 (HOP-92 NSCLC): 324 nM
TGI (HOP-92 NSCLC): 2610 nM
GI50 (OVCAR-3 ovarian): 1910 nM
TGI (OVCAR-3 ovarian): 11600 nM
GI50 (ACHN renal): 2040 nM
TGI (ACHN renal): 10200 nM
GI50 (NCI-H23 lung): 649 nM
TGI (NCI-H23 lung): 3570 nM
GI50 (U251 CNS): 1970 nM
TGI (U251 CNS): 12900 nM
GI50 (SNB-19 CNS): 1740 nM
TGI (SNB-19 CNS): 12900 nM
GI50 (LOX IMVI melanoma): 1220 nM
TGI (LOX IMVI melanoma): 3680 nM
GI50 (786-0 renal): 2410 nM
TGI (786-0 renal): 9940 nM
GI50 (EKVX NSCLC): 1950 nM
TGI (EKVX NSCLC): 11900 nM
GI50 (MALME-3M melanoma): 751 nM
TGI (MALME-3M melanoma): 7710 nM
GI50 (SF-268 CNS): 2650 nM
TGI (SF-268 CNS): 13300 nM
GI50 (MDA-MB-231 breast): 1820 nM
TGI (MDA-MB-231 breast): 4560 nM
GI50 (SNB-75 CNS): 1870 nM
TGI (SNB-75 CNS): 5740 nM
GI50 (SK-MEL-2 melanoma): 1690 nM
TGI (SK-MEL-2 melanoma): 5150 nM
GI50 (DU-145 prostate): 3330 nM
TGI (DU-145 prostate): 16700 nM
GI50 (RPMI-8226 leukemia): 690 nM
TGI (RPMI-8226 leukemia): 3470 nM
GI50 (SR leukemia): 746 nM
TGI (SR leukemia): 4170 nM
GI50 (SN12C renal): 1580 nM
TGI (SN12C renal): 6790 nM
GI50 (NCI/ADR-RES ovarian): 1790 nM
TGI (NCI/ADR-RES ovarian): 8310 nM
GI50 (M14 melanoma): 2640 nM
TGI (M14 melanoma): 8480 nM
GI50 (OVCAR-8 ovarian): 2800 nM
TGI (OVCAR-8 ovarian): 14500 nM
GI50 (NCI-H226 lung): 1370 nM
TGI (NCI-H226 lung): 4300 nM
GI50 (MDA-MB-435): 2160 nM
TGI (MDA-MB-435): 9740 nM
GI50 (OVCAR-4 ovarian): 1310 nM
TGI (OVCAR-4 ovarian): 12400 nM
GI50 (CCRF-CEM leukemia): 1290 nM
TGI (CCRF-CEM leukemia): 13100 nM
GI50 (HCC-2998 colon): 1380 nM
TGI (HCC-2998 colon): 9090 nM
GI50 (A498 renal): 254 nM
TGI (A498 renal): 1710 nM
GI50 (MOLT-4 leukemia): 1960 nM
TGI (MOLT-4 leukemia): 7140 nM
GI50 (HL-60(TB) leukemia): 1460 nM
TGI (HL-60(TB) leukemia): 3570 nM
GI50 (COLO 205 colon): 2050 nM
TGI (COLO 205 colon): 4380 nM
GI50 (UO-31 renal): 1560 nM
TGI (UO-31 renal): 11500 nM
GI50 (IGROV1 ovarian): 2490 nM
TGI (IGROV1 ovarian): 14900 nM
GI50 (A549 NSCLC): 2530 nM
TGI (A549 NSCLC): 14400 nM
GI50 (SK-OV-3 ovarian): 2330 nM
TGI (SK-OV-3 ovarian): 9580 nM
GI50 (KM12 colon): 1770 nM
TGI (KM12 colon): 10600 nM
GI50 (SK-MEL-5 melanoma): 471 nM
TGI (SK-MEL-5 melanoma): 1750 nM
GI50 (T-47D breast): 533 nM
TGI (T-47D breast): 9770 nM
GI50 (SF-539 CNS): 2120 nM
TGI (SF-539 CNS): 10400 nM
GI50 (SK-MEL-28 melanoma): 2450 nM
TGI (SK-MEL-28 melanoma): 12100 nM
GI50 (UACC-257 melanoma): 1490 nM
TGI (UACC-257 melanoma): 7700 nM
GI50 (UACC-62 melanoma): 860 nM
TGI (UACC-62 melanoma): 8130 nM
GI50 (HOP-62 NSCLC): 2930 nM
TGI (HOP-62 NSCLC): 11500 nM
GI50 (HCT-116 colon): 2220 nM
TGI (HCT-116 colon): 10100 nM
GI50 (HS 578T breast): 2720 nM
TGI (HS 578T breast): 12400 nM
GI50 (K-562 leukemia): 1470 nM
TGI (K-562 leukemia): 10800 nM
GI50 (SF-295 CNS): 1230 nM
TGI (SF-295 CNS): 3110 nM
GI50 (OVCAR-5 ovarian): 4330 nM
TGI (OVCAR-5 ovarian): 17400 nM
GI50 (CAKI-1 renal): 1620 nM
TGI (CAKI-1 renal): 7910 nM
GI50 (NCI-H460 lung): 2060 nM
TGI (NCI-H460 lung): 10500 nM
GI50 (TK-10 renal): 2830 nM
TGI (TK-10 renal): 10700 nM
GI50 (HT29 colon): 3460 nM
TGI (HT29 colon): 12100 nM
GI50 (HCT-15 colon): 1650 nM
TGI (HCT-15 colon): 10500 nM
